From patent publication US20060194837A1, “Tetrahydroisoquinoline compounds” (priority 2004, published 2006)
Where two headings read alike, the source gives them in different places.

Experiments:
human H3 receptor [1] = target: T1, human H3 receptor (Homo sapiens, UniProt Q9Y5N1); assay: H3 receptor binding (N-[3H]-α-methylhistamine displacement); details: membranes of SK-N-MC cells expressing cloned human H3 receptor, 0.8 nM N-[3H]-α-methylhistamine, 60 min at 25° C.
T1 construct: expressed in transfected cells
T1 sequence (Q9Y5N1 whole entry): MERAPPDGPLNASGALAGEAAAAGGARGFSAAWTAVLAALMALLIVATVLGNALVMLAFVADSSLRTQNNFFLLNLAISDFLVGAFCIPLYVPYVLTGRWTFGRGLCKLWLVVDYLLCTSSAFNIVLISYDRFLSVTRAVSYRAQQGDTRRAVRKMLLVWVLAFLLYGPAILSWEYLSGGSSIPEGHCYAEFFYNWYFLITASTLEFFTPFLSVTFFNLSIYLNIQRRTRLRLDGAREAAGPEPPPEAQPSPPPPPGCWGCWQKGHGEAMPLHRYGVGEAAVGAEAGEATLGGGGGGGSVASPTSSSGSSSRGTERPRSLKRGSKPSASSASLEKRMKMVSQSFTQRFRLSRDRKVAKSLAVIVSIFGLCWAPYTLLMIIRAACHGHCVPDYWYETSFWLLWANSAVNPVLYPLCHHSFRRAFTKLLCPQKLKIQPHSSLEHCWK

Rat SERT = target: T2, Rat SERT (Rattus norvegicus, UniProt P31652); assay: Rat brain SERT binding ([3H]-citalopram displacement); details: rat brain membranes without cerebellum, 0.6 nM [3H]-citalopram, 60 min at 25° C.
T2 construct: A rat brain without cerebellum (Zivic Laboratories, Inc.—Pittsburgh, Pa.) was homogenized; tissue Zivic Laboratories, Inc; host or cells: rat brain without cerebellum, membranes
T2 sequence (P31652 whole entry): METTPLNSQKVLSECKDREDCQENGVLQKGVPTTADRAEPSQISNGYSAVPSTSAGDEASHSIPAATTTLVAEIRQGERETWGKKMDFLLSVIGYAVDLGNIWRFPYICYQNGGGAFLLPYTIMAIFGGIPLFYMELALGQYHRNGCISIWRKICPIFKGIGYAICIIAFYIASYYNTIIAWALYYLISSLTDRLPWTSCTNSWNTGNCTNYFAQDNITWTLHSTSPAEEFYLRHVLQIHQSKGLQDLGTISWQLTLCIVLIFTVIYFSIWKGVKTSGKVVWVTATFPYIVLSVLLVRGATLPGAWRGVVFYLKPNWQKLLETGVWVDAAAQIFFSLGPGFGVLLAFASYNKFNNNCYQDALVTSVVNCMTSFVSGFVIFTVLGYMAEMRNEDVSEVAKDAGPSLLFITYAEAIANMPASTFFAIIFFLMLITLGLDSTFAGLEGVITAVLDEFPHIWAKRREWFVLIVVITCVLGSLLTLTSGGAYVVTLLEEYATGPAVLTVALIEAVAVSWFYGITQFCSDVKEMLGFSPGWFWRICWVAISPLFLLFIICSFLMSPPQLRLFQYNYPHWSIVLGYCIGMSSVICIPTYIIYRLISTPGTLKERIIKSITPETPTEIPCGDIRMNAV
Description: The supernatant was removed and re-centrifuged at 15,000 rpm for 30 min. […] Membranes were incubated with 0.6 nM [^3H]-Citalopram plus/minus test compounds for 60 min at 25° C. and harvested by rapid filtration over GF/C glass fiber filters (pretreated with 0.3% polyethylenimine) followed by four washes with ice-cold buffer.

human SERT = target: T3, human SERT (Homo sapiens, UniProt P31645); assay: Human SERT binding (3H-citalopram displacement); details: HEK293 membranes expressing human SERT, rt 1 h
T3 construct: expressed in transfected cells; host or cells: HEK293 membranes
T3 sequence (P31645 whole entry): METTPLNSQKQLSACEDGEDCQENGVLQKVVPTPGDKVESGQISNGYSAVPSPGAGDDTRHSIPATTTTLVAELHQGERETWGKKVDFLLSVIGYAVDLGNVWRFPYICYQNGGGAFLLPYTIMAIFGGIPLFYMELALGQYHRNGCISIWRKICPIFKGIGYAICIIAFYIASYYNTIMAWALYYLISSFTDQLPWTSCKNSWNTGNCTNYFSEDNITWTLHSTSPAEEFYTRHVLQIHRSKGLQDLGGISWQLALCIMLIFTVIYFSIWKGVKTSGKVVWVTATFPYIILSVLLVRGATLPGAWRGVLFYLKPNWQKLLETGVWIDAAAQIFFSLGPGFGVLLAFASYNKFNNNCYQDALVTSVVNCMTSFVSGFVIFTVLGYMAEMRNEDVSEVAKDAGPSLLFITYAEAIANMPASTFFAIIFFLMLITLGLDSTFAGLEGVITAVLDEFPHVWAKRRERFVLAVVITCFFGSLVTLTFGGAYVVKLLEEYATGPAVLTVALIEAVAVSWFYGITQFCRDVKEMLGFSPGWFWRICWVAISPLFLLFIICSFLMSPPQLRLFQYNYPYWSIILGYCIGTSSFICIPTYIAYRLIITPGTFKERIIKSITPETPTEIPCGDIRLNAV
Description: Homogenized HEK293 (Human Embryonic Kidney) membranes expressing the human SERT were incubated with ^3H-citalopram (SERT) at rt for 1 h in 50 mM Tris, 120 mM NaCl, 5 mM KCl (pH 7.4). […] The membranes were washed and the radioactivity was counted as above.

human H3 receptor [2] = target: T1, human H3 receptor; assay: Cyclic AMP accumulation (β-galactosidase reporter, Schild analysis); assay type: cell-based; details: histamine agonist, forskolin 5 μM, Schild regression of pEC50 values
Description: Sublines of SK-N-MC cells were created that expressed a reporter construct and the human H3 receptor. The reporter gene (β-galactosidase) is under the control of multiple cyclic AMP responsive elements. In 96-well plates, histamine was added directly to the cell media followed 5 min later by an addition of forskolin (5 μM final concentration). When appropriate, antagonists were added 10 min prior to agonist addition. After a 6-h incubation at 37° C., the media was aspirated and the cells washed with 200 μL of phosphate-buffered saline followed by a second aspiration. Cells were lysed with 25 μL 0.1× assay buffer (10 mM Na-phosphate, pH 8, 0.2 mM MgSO4, 0.01 mM MnCl2) and incubated at rt for 10 min. […] Color was developed using 25 μL of 1 mg/mL substrate solution (chlorophenolred β-D galactopyranoside; Roche Molecular Biochemicals, Indianapolis, In.).

[3] = SK-N-MC cells expressing human H3 receptor and CRE-β-galactosidase reporter, read-out: pA2 (converted)
[4] = pA2, SK-N-MC cells expressing human H3 receptor and CRE-β-galactosidase reporter

Ki (human H3 receptor [1]) | Ki (Rat SERT; read-out: Rat SERT Ki) | Ki (human SERT) | Kb (human H3 receptor [2]; [3]) | SMILES | Kb (human H3 receptor [2]; [4]) | Ki (Rat SERT; Rat SERT Ki (nM))
6 nM | 4 nM | 6 nM | 5.01 nM | COc1ccc(C2CN(C)Cc3cc(OCCCN4CCC(C#N)CC4)ccc32)cc1 (single isomer, unassigned) [Example 37B, 1-{3-[4-(4-Methoxy-phenyl)-2-methyl-1,2,3,4-tetrahydro-isoquinolin-7-yloxy]-propyl}-piperidine-4-carbonitrile] | – | –
10 nM | 6 nM | 9 nM | 7.94 nM | CSc1ccc(C2CN(C)Cc3cc(OCC4CN(C(C)C)C4)ccc32)cc1 (stereo not drawn) [Example 236, 7-(1-Isopropyl-azetidin-3-ylmethoxy)-2-methyl-4-(4-methylsulfanyl-phenyl)-1,2,3,4-tetrahydro-isoquinoline] | – | –
3 nM | 6 nM | 5 nM | 1.26 nM | COc1ccc(C2CN(C)Cc3cc(OCC4CCN(C(C)C)CC4)ccc32)cc1 (stereo not drawn) [Example 83, 7-(1-Isopropyl-piperidin-4-ylmethoxy)-4-(4-methoxy-phenyl)-2-methyl-1,2,3,4-tetrahydro-isoquinoline] | – | –
2 nM | 14 nM | 7 nM | 2.51 nM | CN1Cc2cc(OCCCN3CCCCC3)ccc2C(c2ccc(C(F)(F)F)cc2)C1 (stereo not drawn) [Example 60] | – | –

More lines, now with the values behind:

SMILES | Ki (human H3 receptor [1]) | Ki (Rat SERT; read-out: Rat SERT Ki) | Ki (human SERT) | Kb (human H3 receptor [2]; [3]) | Kb (human H3 receptor [2]; [4]) | Ki (Rat SERT; Rat SERT Ki (nM))
CN1Cc2cc(CCCCN3CCCCC3)ccc2C(c2cccnc2)C1 (stereo not drawn) [Example 273, 2-Methyl-7-(4-piperidin-1-yl-butyl)-4-pyridin-3-yl-1,2,3,4-tetrahydro-isoquinoline] | 5 nM | 47 nM | 158 nM | 2 nM | – | –
COc1ccc(C2CN(CCF)Cc3cc(OCCCN4CCCCC4)ccc32)cc1 (stereo not drawn) [Example 72, 2-(2-Fluoro-ethyl)-4-(4-methoxy-phenyl)-7-(3-piperidin-1-yl-propoxy)-1,2,3,4-tetrahydro-isoquinoline] | 1 nM | 15 nM | 29 nM | – | 0.794 nM | –
CN1Cc2cc(OCCCN3CCCCC3)ccc2C(c2ccc(Cl)c(Cl)c2)C1 (stereo not drawn) [Example 76, 4-(3,4-Dichloro-phenyl)-2-methyl-7-(3-piperidin-1-yl-propoxy)-1,2,3,4-tetrahydro-isoquinoline] | 5 nM | – | 9 nM | – | 3.98 nM | 11 nM
COc1ccc(C2CN(CCO)Cc3cc(OCCCN4CCCCC4)ccc32)cc1 (stereo not drawn) [Example 71, 2-[4-(4-Methoxy-phenyl)-7-(3-piperidin-1-yl-propoxy)-3,4-dihydro-1H-isoquinolin-2-yl]-ethanol] | 1 nM | 16 nM | 31 nM | 0.251 nM | – | –
COc1cccc(C2CN(C)Cc3cc(OCCCN4CCC(F)CC4)ccc32)c1 (racemic) [Example 44, 7-[3-(4-Fluoro-piperidin-1-yl)-propoxy]-4-(3-methoxyphenyl)-2-methyl-1,2,3,4-tetrahydro-isoquinoline] | 2 nM | 4 nM | 7 nM | 0.794 nM | – | –
COc1ccc(C2CN(C)Cc3cc(OCCCN4CC[C@@H](N(C)C)C4)ccc32)cc1 (stereo in doubt) [Example 10, (1-{3-[4-(4-Methoxy-phenyl)-2-methyl-1,2,3,4-tetrahydro-isoquinolin-7-yloxy]-propyl}-pyrrolidin-3-yl)-dimethyl-amine] | 1 nM | 4 nM | 5 nM | 3.98 nM | – | –
COc1ccc(C2CN(C)Cc3cc(OCCCN4CCC(O)CC4)ccc32)cc1 (stereo not drawn) [Example 21, 1-{3-[4-(4-Methoxy-phenyl)-2-methyl-1,2,3,4-tetrahydro-isoquinolin-7-yloxy]-propyl}-piperidin-4-ol] | 9 nM | 2 nM | 4 nM | 12.6 nM | – | –
COc1ccc(C2CN(C)Cc3cc(OCCCN4CCC(F)(F)CC4)ccc32)cc1 (stereo not drawn) [Example 8, 7-[3-(4,4-Difluoro-piperidin-1-yl)-propoxy]-4-(4-methoxy-phenyl)-2-methyl-1,2,3,4-tetrahydro-isoquinoline] | 4 nM | 6 nM | 8 nM | 5.01 nM | – | –
